Reference: ChEMBL document CHEMBL1255331, “Emergence of fluoroquinolone resistance in group B streptococcal isolates in Taiwan” (2008)
≈ marks a conversion by molar mass, not a printed value.

How the values were obtained:
Format in all cases: functional
[1] = tested on: Streptococcus sp. 'group B'; experiment: Antimicrobial activity against Streptococcus sp. 'group B' isolate 16 harboring gyrA Ser81Leu mutant, parC Ser79Tyr mutant and parE Ileu495Leu mutant gene by agar dilution method
[2] = tested on: Streptococcus sp. 'group B'; experiment: Antimicrobial activity against Streptococcus sp. 'group B' isolate 9 harboring gyrA Ser81Leu mutant, parC Ser79Tyr mutant and parE Ileu495Leu mutant gene by agar dilution method
[3] = tested on: Streptococcus sp. 'group B'; experiment: Antimicrobial activity against Streptococcus sp. 'group B' isolate 1 harboring gyrA Glu85Lys mutant, parC Ser79Tyr mutant and parE Ileu495Leu mutant gene by agar dilution method

O=C(O)c1cn(C2CC2)c2cc(N3CCNCC3)c(F)cc2c1=O [CIPROFLOXACIN]
MIC [1]: 32 µg/mL (≈ 96.6 µM) | MIC [2]: 64 µg/mL (≈ 193 µM)

COc1c(N2C[C@@H]3CCCN[C@@H]3C2)c(F)cc2c(=O)c(C(=O)O)cn(C3CC3)c12 [MOXIFLOXACIN]
MIC [3]: 2 µg/mL (≈ 4.98 µM) | MIC [1]: 4 µg/mL (≈ 9.96 µM) | MIC [2]: 4 µg/mL (≈ 9.96 µM)

N[C@@H]1[C@H]2CN(c3nc4c(cc3F)c(=O)c(C(=O)O)cn4-c3ccc(F)cc3F)C[C@@H]12 [TROVAFLOXACIN]
MIC [3]: 8 µg/mL (≈ 19.2 µM) | MIC [1]: 16 µg/mL (≈ 38.4 µM) | MIC [2]: 8 µg/mL (≈ 19.2 µM)

C[C@H]1NCc2cc(-c3ccc4c(=O)c(C(=O)O)cn(C5CC5)c4c3OC(F)F)ccc21 [GARENOXACIN]
MIC [3]: 2 µg/mL (≈ 4.69 µM) | MIC [1]: 2 µg/mL (≈ 4.69 µM) | MIC [2]: 2 µg/mL (≈ 4.69 µM)

C[C@H]1COc2c(N3CCN(C)CC3)c(F)cc3c(=O)c(C(=O)O)cn1c23.C[C@H]1COc2c(N3CCN(C)CC3)c(F)cc3c(=O)c(C(=O)O)cn1c23.O [LEVOFLOXACIN]
MIC [3]: 16 µg/mL | MIC [1]: 32 µg/mL | MIC [2]: 16 µg/mL

COc1c(N2CCNC(C)C2)c(F)cc2c(=O)c(C(=O)O)cn(C3CC3)c12 (configuration not stated) [GATIFLOXACIN]
MIC [3]: 4 µg/mL (≈ 10.7 µM) | MIC [1]: 8 µg/mL (≈ 21.3 µM) | MIC [2]: 4 µg/mL (≈ 10.7 µM)
